What all share (test): Enzyme inhibiting activity of MMPs, fluorogenic peptide substrate
What all share (format): biochemical

One assay concerns the target T1, MMP-2 (Homo sapiens, UniProt P08253).
T1 construct: purchased Calbiochem (EMD/MERCK Biosciences)
T1 sequence (P08253 110-660): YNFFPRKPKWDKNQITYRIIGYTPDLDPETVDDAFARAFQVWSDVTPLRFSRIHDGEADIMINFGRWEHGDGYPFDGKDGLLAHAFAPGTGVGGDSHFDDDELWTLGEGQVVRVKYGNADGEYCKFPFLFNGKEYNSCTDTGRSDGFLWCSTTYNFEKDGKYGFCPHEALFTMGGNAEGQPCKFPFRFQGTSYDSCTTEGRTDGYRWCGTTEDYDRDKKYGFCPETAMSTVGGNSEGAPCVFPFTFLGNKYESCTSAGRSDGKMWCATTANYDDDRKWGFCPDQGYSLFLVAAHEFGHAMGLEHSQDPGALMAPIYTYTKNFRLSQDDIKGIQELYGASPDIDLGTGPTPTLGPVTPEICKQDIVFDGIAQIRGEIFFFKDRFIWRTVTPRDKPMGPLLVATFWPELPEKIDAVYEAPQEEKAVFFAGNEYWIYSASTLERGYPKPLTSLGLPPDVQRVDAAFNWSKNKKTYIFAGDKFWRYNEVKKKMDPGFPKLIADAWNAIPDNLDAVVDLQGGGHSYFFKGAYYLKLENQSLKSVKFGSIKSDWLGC
Conditions: substrate MOCAc-Pro-Leu-Gly-Leu-A2Pr(DNP)-Ala-Arg-NH2, fluorescent intensity. In short, it runs like this:
(§1)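 Recombinant human enzymes with the fluorogenic substrate MOCAc-Pro-Leu-Gly-Leu-A2Pr(DNP)-Ala-Arg-NH2. Fluorescence was read for enzyme+substrate±inhibitor and substrate±inhibitor blanks.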

A further assay has as its target T2, MMP-9 (Homo sapiens, UniProt P14780).
T2 construct: purchased Calbiochem (EMD/MERCK Biosciences)
As to conditions: substrate MOCAc-Pro-Leu-Gly-Leu-A2Pr(DNP)-Ala-Arg-NH2, fluorescent intensity. An outline of the steps:
as §1

The target in another assay is T3, MMP-13 (Homo sapiens, UniProt P45452).
T3 construct: purchased Calbiochem (EMD/MERCK Biosciences)
As to conditions: APMA-activated proenzyme; substrate MOCAc-Pro-Leu-Gly-Leu-A2Pr(DNP)-Ala-Arg-NH2, fluorescent intensity; read-out: IC50 MMP-13. An outline of the steps:
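Pro-MMP-13 was activated with 1 mM APMA at 37° C for 2 h in 50 mM Tris-HCl pH 7.6, 0.3 M NaCl, 10 mM CaCl2, 0.005% Brij35. Activity was read by fluorescence using MOCAc-Pro-Leu-Gly-Leu-A2Pr(DNP)-Ala-Arg-NH2 substrate, with enzyme and inhibitor blank corrections. IC50 is the concentration giving 50% inhibition.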

T2 sequence (P14780 94-707): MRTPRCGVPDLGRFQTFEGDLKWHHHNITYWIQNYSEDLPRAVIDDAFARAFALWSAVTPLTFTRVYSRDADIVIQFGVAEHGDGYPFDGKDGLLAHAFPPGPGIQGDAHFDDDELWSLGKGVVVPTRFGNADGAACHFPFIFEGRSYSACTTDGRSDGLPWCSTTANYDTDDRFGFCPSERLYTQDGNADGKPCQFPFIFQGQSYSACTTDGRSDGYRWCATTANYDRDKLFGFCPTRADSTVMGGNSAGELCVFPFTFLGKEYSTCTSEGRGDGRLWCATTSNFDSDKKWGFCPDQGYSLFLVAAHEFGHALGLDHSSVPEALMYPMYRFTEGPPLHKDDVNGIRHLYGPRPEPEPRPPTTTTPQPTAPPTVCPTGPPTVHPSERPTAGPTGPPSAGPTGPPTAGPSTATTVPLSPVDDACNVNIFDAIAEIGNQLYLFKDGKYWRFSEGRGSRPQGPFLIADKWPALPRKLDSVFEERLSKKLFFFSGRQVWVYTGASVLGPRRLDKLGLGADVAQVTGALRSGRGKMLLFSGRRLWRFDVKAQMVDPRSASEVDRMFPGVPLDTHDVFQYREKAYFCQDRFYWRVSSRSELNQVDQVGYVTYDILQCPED

Take `Cc1ccc(CNC(=O)c2cc(C#Cc3ccc(N4CCN(S(=O)(=O)N[C@@H](C(=O)O)C(C)C)CC4)cc3)ccn2)cc1F` [III-230, (R)-2-(4-{4-[2-(3-fluoro-4-methylbenzylcarbamoyl)-pyridin-4-ylethynyl]-phenyl}-piperazine-1-sulfonylamino)-3-methylbutanoic acid]: the IC50 was 1000 to 10000 nM at MMP-2, above 10000 nM against MMP-9 and 7 nM on MMP-13.
Turning to `CC(C)[C@@H](NS(=O)(=O)N1CCN(c2ccc(C#Cc3ccc(OCCOC(C)(C)C)c(C(=O)NCC#N)c3)cc2)CC1)C(=O)O` [III-138, (R)-2-(4-{4-[4-(2-tert-butoxyethoxy)-3-(cyanomethylcarbamoyl)-phenylethynyl]-phenyl}-piperazine-1-sulfonylamino)-3-methylbutanoic acid], the figures for the IC50 on MMP-2, against MMP-9 and at MMP-13 were 1000 to 10000 nM, above 10000 nM and 18 nM, respectively.
For `C[C@@H](NS(=O)(=O)N1CCN(c2ccc(C#Cc3cccc(C(=O)NCc4ccccc4)c3)cc2)CC1)C(=O)O` [Compound I-1, (1)-2-{4-[4-(3-benzylcarbamoylphenylethynyl)-phenyl]-piperazine-1-sulfonylamino}-proponic acid], in that order: 100 to 1000 nM, above 10000 nM and 2.1 nM.
For `C[C@@H](NS(=O)(=O)N1CCN(c2ccc(C#Cc3ccc4ccn(Cc5ccccc5)c(=O)c4c3)cc2)CC1)C(=O)O` [III-5, (R)-2-{4-[4-(2-benzyl-1-oxo-1,2-dihydroisoquinolin-7-ylethynyl)-phenyl]-piperazine-1-sulfonylamino}-proponic acid], in that order: 1000 to 10000 nM, above 10000 nM and 5 nM.
For `COc1ccc(Cn2ccc3ccc(C#Cc4ccc(N5CCN(S(=O)(=O)N[C@H](C)C(=O)O)CC5)cc4)cc3c2=O)cc1` [Compound V-36, (R)-2-(4-{4-[2-(4-methoxybenzyl)-1-oxo-1,2-dihydroisoquinolin-7-ylethynyl]-phenyl}-piperazine-1-sulfonylamino)-proponic acid], in that order: 1000 to 10000 nM, 1000 to 10000 nM and 5 nM.
For the compound `C[C@@H](NS(=O)(=O)N1CCN(c2ccc(C#Cc3ccc4c(c3)C(=O)N(Cc3ccccc3)CCN4)cc2)CC1)C(=O)O` [Compound V-51, (R)-2-{4-[4-(4-benzyl-5-oxo-2,3,4,5-tetrahydro-1H-benzo[e][1,4]diazepin-7-ylethynyl)-phenyl]-piperazine-1-sulfonylamino}-proponic acid], the IC50 at MMP-2 is 1000 to 10000 nM; against MMP-9, above 10000 nM; on MMP-13, 8 nM.
On to `CC(C)[C@@H](NS(=O)(=O)N1CCN(c2ccc(C#Cc3ccnc(C(=O)NCc4cccc(C#N)c4)c3)cc2)CC1)C(=O)O` [Compound V-32, (R)-2-(4-{4-[2-(3-cyanobenzylcarbamoyl)-pyridin-4-ylethynyl]-phenyl}-piperazine-1-sulfonylamino)-3-methylbutanoic acid], for which the results for the IC50 against MMP-2, on MMP-9 and on MMP-13 were 1000 to 10000 nM, above 10000 nM and 16 nM, respectively.
For `COc1ccc(Cn2c(=O)[nH]c3ccc(C#Cc4ccc(N5CCN(S(=O)(=O)N[C@@H](C(=O)O)C(C)C)CC5)cc4)cc3c2=O)cc1` [III-73, (R)-2-(4-{4-[3-(4-methoxybenzyl)-2,4-dioxo-1,2,3,4-tetrahydroquinazolin-6-ylethynyl]-phenyl}-piperazine-1-sulfonylamino)-3-methylbutanoic acid], in that order: above 10000 nM, above 10000 nM and 23 nM.
For `CC(C)[C@@H](NS(=O)(=O)N1CCN(c2ccc(C#Cc3nc(-c4cccc(C(=O)NCC#N)c4)cs3)cc2)CC1)C(=O)O` [Compound V-40, (R)-2-[4-(4-{4-[3-(cyanomethylcarbamoyl)-phenyl]-thiazol-2-ylethynyl}-phenyl)-piperazine-1-sulfonylamino]-3-methylbutanoic acid], in that order: 1000 to 10000 nM, 1000 to 10000 nM and 8 nM.
For `C[C@@H](NS(=O)(=O)N1CCN(c2ccc(C#Cc3nc(-c4cccc(C(=O)NCc5ccccc5)c4)cs3)cc2)CC1)C(=O)O` [Compound V-14, (R)-2-(4-{4-[4-(3-benzylcarbamoylphenyl)-thiazol-2-ylethynyl]-phenyl}-piperazine-1-sulfonylamino)-proponic acid], the IC50 against MMP-2 is 1000 to 10000 nM; on MMP-9 it was above 10000 nM; at MMP-13 it was 6 nM.
For `CC(C)[C@@H](NS(=O)(=O)N1CCN(c2ccc(C#Cc3ccnc(C(=O)NCc4ccc(-n5cccn5)cc4)c3)cc2)CC1)C(=O)O` [III-214, (R)-3-methyl-2-(4-{4-[2-(4-pyrazol-1-ylbenzylcarbamoyl)-pyridin-4-ylethynyl]-phenyl}-piperazine-1-sulfonylamino)-butanoic acid], in that order: 1000 to 10000 nM, above 10000 nM and 6 nM.
As for `C[C@@H](NS(=O)(=O)N1CCN(c2ccc(C#Cc3ccc4c(c3)C(c3ccco3)=CCC4)cc2)CC1)C(=O)O` [Compound I-112, (R)-2-{4-[4-(8-furan-2-yl-5-6-dihydronaphthalen-2-ylethynyl)-phenyl]-piperazine-1-sulfonylamino}-proponic acid], the IC50 was above 10000 nM at MMP-2, above 10000 nM on MMP-9 and 62 nM at MMP-13.
On to `CC(C)[C@@H](NS(=O)(=O)N1CCN(c2ccc(C#Cc3ccnc(C(=O)NCc4ccc(N5CCCC5=O)cc4)c3)cc2)CC1)C(=O)O` [III-37, (R)-3-methyl-2-[4-(4-{2-[4-(2-oxopyrrolidine-1-yl)-benzylcarbamoyl]-pyridin-4-ylethynyl}-phenyl)-piperazine-1-sulfonylamino]-butanoic acid], for which the IC50 was 100 to 1000 nM at MMP-2, above 10000 nM at MMP-9 and 1 nM on MMP-13.
For `CC(C)[C@@H](NS(=O)(=O)N1CCN(c2ccc(C#Cc3ccc4[nH]c(=O)n(Cc5ccc(F)cc5)c(=O)c4c3)cc2)CC1)C(=O)O` [III-72, (R)-2-(4-{4-[3-(4-fluorobenzyl)-2,4-dioxo-1,2,3,4-tetrahydroquinazolin-6-ylethynyl]-phenyl}-piperazine-1-sulfonylamino)-3-methylbutanoic acid], in that order: above 10000 nM, above 10000 nM and 21 nM.
For `C[C@H](NS(=O)(=O)N1CCN(c2ccc(C#Cc3ccnc(C(=O)NCc4ccc(Cl)cc4)c3)cc2)CC1)C(=O)O` [III-59, (S)-2-(4-{4-[2-(4-chrolobenzylcarbamoyl)-pyridin-4-ylethynyl]-phenyl}-piperazine-1-sulfonylamino)-proponic acid], in that order: above 10000 nM, above 10000 nM and 6 nM.
For `CC(=O)c1cccc2ccc(C#Cc3ccc(N4CCN(S(=O)(=O)N[C@@H](CO)C(=O)O)CC4)cc3)cc12` [III-24, (S)-2-{4-[4-(8-acetylnaphthalen-2-ylethynyl)-phenyl]-piperazine-1-sulfonylamino}-3-hydroxyproponic acid], in that order: above 10000 nM, above 10000 nM and 26 nM.

Usually IC50 stands for the concentration needed to halve the response being measured.

The record behind these values is patent US20100099676A1 (SHIONOGI & CO., LTD., priority 2006, published 2010).
